Measurements: US4058512A, “Synthetic peptides having growth promoting activity” (AB Kabi, priority 1975, dated 1977)
Bridge positions count the residues as written; N and C are the ends. Peptide text beside a SMILES is read from it.

System: human embryonic lung fibroblasts
Assay: Growth promoting activity in human embryonic lung fibroblasts, cell counting in a counting chamber
Assay type: cell-based
Details: for Growth stimulation in %: per cent increase over basal value with 0.67% calf serum; for No. of cells × 10^6: 0.67% calf serum
Experimental: Tests of the growth promoting activity have been performed in human embryonic lung fibroblasts and the growth promoting activity is measured by cell counting in a counting chamber and expressed as per cent increase over a basal value obtained with using 0.67% calf serum.

`C[C@@H](O)[C@H](NC(=O)[C@@H]1CSSC[C@H](NC(=O)[C@H](CO)NC(=O)[C@H](CCC(=O)O)NC(=O)[C@H](CCC(N)=O)NC(=O)[C@@H](N)CC(=O)O)C(=O)N[C@@H](CCCCN)C(=O)NCC(=O)N[C@@H](CCCNC(=N)N)C(=O)N1)C(=O)N[C@@H](CCC(=O)O)C(=O)NCC(=O)N[C@@H](Cc1ccccc1)C(=O)O` [tridecapeptide (cyclic)] (H-DQESCKGRCTEGF-OH; disulfide 5-9) was tested. Which “Growth stimulation in %” value (1 μg per ml medium) did it give?
Its value is 14%.

And the “No. of cells × 10^6” value (1 μg tridecapeptide per ml medium)?
The value was 2.35 × 10^6.

And the “Growth stimulation in %” value (5 μg per ml medium)?
Its value is 66%.

What about the “No. of cells × 10^6” value (5 μg tridecapeptide per ml medium) of the same compound?
The value was 3.4 × 10^6.

What about the “Growth stimulation in %” value (10 μg per ml medium) of the same compound?
The value was 60%.

And the “No. of cells × 10^6” value (10 μg tridecapeptide per ml medium)?
The value was 3.3 × 10^6.

And the “Growth stimulation in %” value (25 μg per ml medium)?
Its value is 51%.

What about the “No. of cells × 10^6” value (25 μg tridecapeptide per ml medium) of the same compound?
Its value is 3.1 × 10^6.

What about the “Growth stimulation in %” value (50 μg per ml medium) of the same compound?
The value was 31%.

And the “No. of cells × 10^6” value (50 μg tridecapeptide per ml medium)?
The value was 2.7 × 10^6.

What about the “Effect on total number of cells produced” value (dosages higher than 10 μug. per ml. of medium) of the same compound?
The value was “slight inhibitory effect”.

What about the “Effect on total number of cells produced” value (dosages of from 1 to 10 μug. of polypeptide per ml. of medium) of the same compound?
Its value is “dose related increase”.
